Experiments:
Assay in all cases: Kinase selectivity panel
Assay type in all cases: biochemical
Settings in all cases: read-out: Inhibition(%) @ 1 µM RK-019
MKK3(h) = target: T1, MKK3(h) (Homo sapiens, UniProt P46734)
T1 construct: purchased Eurofins Discovery Services (KinaseProfiler)
Procedure, shortened: (§1)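 Single-point selectivity screen: 1 µM compound, recombinant human enzyme, in vitro ATP-site competition binding; result expressed as inhibition ratio.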

CDKL2(h) = target: T2, CDKL2(h) (Homo sapiens, UniProt Q92772)
T2 construct: purchased Eurofins Discovery Services (KinaseProfiler)
Procedure, shortened: as §1

Abl(h) = target: T3, Abl(h) (Homo sapiens, UniProt P00519)
T3 construct: purchased Eurofins Discovery Services (KinaseProfiler)
Procedure, shortened: as §1

SRPK2(h) = target: T4, SRPK2(h) (Homo sapiens, UniProt P78362)
T4 construct: purchased Eurofins Discovery Services (KinaseProfiler)
Procedure, shortened: as §1

Rsk4(h) = target: T5, Rsk4(h) (Homo sapiens, UniProt Q9UK32)
T5 construct: purchased Eurofins Discovery Services (KinaseProfiler)
Procedure, shortened: as §1

GRK6(h) = target: T6, GRK6(h) (Homo sapiens, UniProt P43250)
T6 construct: purchased Eurofins Discovery Services (KinaseProfiler)
Procedure, shortened: as §1

PIP5K1g(h) = target: T7, PIP5K1g(h) (Homo sapiens, UniProt O60331)
T7 construct: purchased Eurofins Discovery Services (KinaseProfiler)
Procedure, shortened: as §1

Met(Y1248D)(h) = target: T8, Met(Y1248D)(h) (Homo sapiens, UniProt P08581, Y1230D)
T8 construct: purchased Eurofins Discovery Services (KinaseProfiler)
Procedure, shortened: as §1

DAPK2(h) = target: T9, DAPK2(h) (Homo sapiens, UniProt Q9UIK4)
T9 construct: purchased Eurofins Discovery Services (KinaseProfiler)
Procedure, shortened: as §1

Ros(h) = target: T10, Ros(h) (Homo sapiens, UniProt P08922)
T10 construct: purchased Eurofins Discovery Services (KinaseProfiler)
Procedure, shortened: as §1

BIKe(h) = target: T11, BIKe(h) (Homo sapiens, UniProt Q9NSY1)
T11 construct: purchased Eurofins Discovery Services (KinaseProfiler)
Procedure, shortened: as §1

MAK(h) = target: T12, MAK(h) (Homo sapiens, UniProt P20794)
T12 construct: purchased Eurofins Discovery Services (KinaseProfiler)
Procedure, shortened: as §1

MSK2(h) = target: T13, MSK2(h) (Homo sapiens, UniProt O75676)
T13 construct: purchased Eurofins Discovery Services (KinaseProfiler)
Procedure, shortened: as §1

NEK4(h) = target: T14, NEK4(h) (Homo sapiens, UniProt P51957)
T14 construct: purchased Eurofins Discovery Services (KinaseProfiler)
Procedure, shortened: as §1

PKD3(h) = target: T15, PKD3(h) (Homo sapiens, UniProt O94806)
T15 construct: purchased Eurofins Discovery Services (KinaseProfiler)
Procedure, shortened: as §1

CDK2/cyclinE(h) = target: T16, CDK2/cyclinE(h) (Homo sapiens, UniProt P24941)
T16 construct: purchased Eurofins Discovery Services (KinaseProfiler)
Procedure, shortened: as §1

CDKL3(h) = target: T17, CDKL3(h) (Homo sapiens, UniProt Q8IVW4)
T17 construct: purchased Eurofins Discovery Services (KinaseProfiler)
Procedure, shortened: as §1

DYRK1A(h) = target: T18, DYRK1A(h) (Homo sapiens, UniProt Q13627)
T18 construct: purchased Eurofins Discovery Services (KinaseProfiler)
Procedure, shortened: as §1

LKB1(h) = target: T19, LKB1(h) (Homo sapiens, UniProt Q15831)
T19 construct: purchased Eurofins Discovery Services (KinaseProfiler)
Procedure, shortened: as §1

HPK1(h) = target: T20, HPK1(h) (Homo sapiens, UniProt Q92918)
T20 construct: purchased Eurofins Discovery Services (KinaseProfiler)
Procedure, shortened: as §1

MEKK2(h) = target: T21, MEKK2(h) (Homo sapiens, UniProt Q9Y2U5)
T21 construct: purchased Eurofins Discovery Services (KinaseProfiler)
Procedure, shortened: as §1

SLK(h) = target: T22, SLK(h) (Homo sapiens, UniProt Q9H2G2)
T22 construct: purchased Eurofins Discovery Services (KinaseProfiler)
Procedure, shortened: as §1

PIP5K1a(h) = target: T23, PIP5K1a(h) (Homo sapiens, UniProt Q99755)
T23 construct: purchased Eurofins Discovery Services (KinaseProfiler)
Procedure, shortened: as §1

FAK(h) = target: T24, FAK(h) (Homo sapiens, UniProt Q05397)
T24 construct: purchased Eurofins Discovery Services (KinaseProfiler)
Procedure, shortened: as §1

[1] = target: T25, PI3 Kinase (p110a/p65a)(m) (Mus musculus, UniProt P42337)
T25 construct: purchased Eurofins Discovery Services (KinaseProfiler)

Txk(h) = target: T26, Txk(h) (Homo sapiens, UniProt P42681)
T26 construct: purchased Eurofins Discovery Services (KinaseProfiler)
Procedure, shortened: as §1

[2] = target: T27, PI3 Kinase (p110a/p85a)(m) (Mus musculus, UniProt P42337)
T27 construct: purchased Eurofins Discovery Services (KinaseProfiler)

LIMK2(h) = target: T28, LIMK2(h) (Homo sapiens, UniProt P53671)
T28 construct: purchased Eurofins Discovery Services (KinaseProfiler)
Procedure, shortened: as §1

CK1γ3(h) = target: T29, CK1γ3(h) (Homo sapiens, UniProt Q9Y6M4)
T29 construct: purchased Eurofins Discovery Services (KinaseProfiler)
Procedure, shortened: as §1

IGF-1R(h) = target: T30, IGF-1R(h) (Homo sapiens, UniProt P08069)
T30 construct: purchased Eurofins Discovery Services (KinaseProfiler)
Procedure, shortened: as §1

Src(T341M)(h) = target: T31, Src(T341M)(h) (Homo sapiens, UniProt P12931, T341M)
T31 construct: purchased Eurofins Discovery Services (KinaseProfiler)
Procedure, shortened: as §1

NEK2(h) = target: T32, NEK2(h) (Homo sapiens, UniProt P51955)
T32 construct: purchased Eurofins Discovery Services (KinaseProfiler)
Procedure, shortened: as §1

CDK12/cyclinK(h) = target: T33, CDK12/cyclinK(h) (Homo sapiens, UniProt Q9NYV4)
T33 construct: purchased Eurofins Discovery Services (KinaseProfiler)
Procedure, shortened: as §1

BrSK2(h) = target: T34, BrSK2(h) (Homo sapiens, UniProt Q8IWQ3)
T34 construct: purchased Eurofins Discovery Services (KinaseProfiler)
Procedure, shortened: as §1

RIPK2(h) = target: T35, RIPK2(h) (Homo sapiens, UniProt O43353)
T35 construct: purchased Eurofins Discovery Services (KinaseProfiler)
Procedure, shortened: as §1

TLK2(h) = target: T36, TLK2(h) (Homo sapiens, UniProt Q86UE8)
T36 construct: purchased Eurofins Discovery Services (KinaseProfiler)
Procedure, shortened: as §1

CK2α1(h) = target: T37, CK2α1(h) (Homo sapiens, UniProt P68400)
T37 construct: purchased Eurofins Discovery Services (KinaseProfiler)
Procedure, shortened: as §1

T32 sequence (P51955 whole entry): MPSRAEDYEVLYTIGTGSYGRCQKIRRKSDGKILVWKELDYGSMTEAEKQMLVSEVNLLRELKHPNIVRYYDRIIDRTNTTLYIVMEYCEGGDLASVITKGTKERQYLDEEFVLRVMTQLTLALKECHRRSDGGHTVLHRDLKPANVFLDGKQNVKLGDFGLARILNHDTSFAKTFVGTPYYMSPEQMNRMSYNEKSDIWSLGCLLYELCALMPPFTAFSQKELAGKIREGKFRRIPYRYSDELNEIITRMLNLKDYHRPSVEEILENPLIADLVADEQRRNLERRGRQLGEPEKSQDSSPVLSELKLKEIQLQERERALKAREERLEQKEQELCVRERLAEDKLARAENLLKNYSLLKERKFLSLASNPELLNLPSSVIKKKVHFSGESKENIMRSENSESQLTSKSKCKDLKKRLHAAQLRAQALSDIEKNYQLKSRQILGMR
T37 sequence (P68400 whole entry): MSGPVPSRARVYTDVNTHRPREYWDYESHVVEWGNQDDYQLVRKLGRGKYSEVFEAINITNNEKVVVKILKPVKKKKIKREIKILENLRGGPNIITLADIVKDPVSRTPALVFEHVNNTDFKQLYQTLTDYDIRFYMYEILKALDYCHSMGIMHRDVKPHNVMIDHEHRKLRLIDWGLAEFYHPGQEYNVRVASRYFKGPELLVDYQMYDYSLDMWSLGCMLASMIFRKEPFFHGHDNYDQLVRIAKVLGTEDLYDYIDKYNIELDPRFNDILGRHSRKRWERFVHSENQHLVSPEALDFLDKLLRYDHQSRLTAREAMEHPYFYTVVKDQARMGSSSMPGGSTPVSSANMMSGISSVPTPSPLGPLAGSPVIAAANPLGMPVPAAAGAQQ
T21 sequence (Q9Y2U5 whole entry): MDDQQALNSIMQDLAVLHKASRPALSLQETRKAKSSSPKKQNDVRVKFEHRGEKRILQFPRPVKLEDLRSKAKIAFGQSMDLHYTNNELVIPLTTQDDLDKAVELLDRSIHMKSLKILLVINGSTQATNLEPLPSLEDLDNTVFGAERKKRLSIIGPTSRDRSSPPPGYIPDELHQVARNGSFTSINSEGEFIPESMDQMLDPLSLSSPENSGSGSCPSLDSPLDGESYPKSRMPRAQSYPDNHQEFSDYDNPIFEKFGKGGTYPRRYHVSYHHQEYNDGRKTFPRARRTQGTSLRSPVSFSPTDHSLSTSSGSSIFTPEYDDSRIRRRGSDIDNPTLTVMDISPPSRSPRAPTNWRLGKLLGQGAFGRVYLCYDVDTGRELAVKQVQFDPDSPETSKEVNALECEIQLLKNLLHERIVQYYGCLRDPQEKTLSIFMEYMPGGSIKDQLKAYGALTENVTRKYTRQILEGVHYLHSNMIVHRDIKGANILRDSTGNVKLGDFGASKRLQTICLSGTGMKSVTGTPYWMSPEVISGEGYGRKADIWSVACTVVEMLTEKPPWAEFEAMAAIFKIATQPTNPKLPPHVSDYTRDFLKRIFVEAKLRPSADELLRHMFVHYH
T1 sequence (P46734 whole entry): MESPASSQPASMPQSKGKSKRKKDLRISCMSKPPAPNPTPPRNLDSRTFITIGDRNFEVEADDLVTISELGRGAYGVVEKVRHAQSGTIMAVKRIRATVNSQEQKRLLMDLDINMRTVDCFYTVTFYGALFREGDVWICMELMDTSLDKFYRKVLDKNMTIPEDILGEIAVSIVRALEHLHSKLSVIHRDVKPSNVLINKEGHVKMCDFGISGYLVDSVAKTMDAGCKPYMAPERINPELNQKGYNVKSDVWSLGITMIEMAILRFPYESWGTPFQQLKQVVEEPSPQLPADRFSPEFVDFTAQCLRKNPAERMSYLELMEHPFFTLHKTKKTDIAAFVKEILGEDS
T13 sequence (O75676 whole entry): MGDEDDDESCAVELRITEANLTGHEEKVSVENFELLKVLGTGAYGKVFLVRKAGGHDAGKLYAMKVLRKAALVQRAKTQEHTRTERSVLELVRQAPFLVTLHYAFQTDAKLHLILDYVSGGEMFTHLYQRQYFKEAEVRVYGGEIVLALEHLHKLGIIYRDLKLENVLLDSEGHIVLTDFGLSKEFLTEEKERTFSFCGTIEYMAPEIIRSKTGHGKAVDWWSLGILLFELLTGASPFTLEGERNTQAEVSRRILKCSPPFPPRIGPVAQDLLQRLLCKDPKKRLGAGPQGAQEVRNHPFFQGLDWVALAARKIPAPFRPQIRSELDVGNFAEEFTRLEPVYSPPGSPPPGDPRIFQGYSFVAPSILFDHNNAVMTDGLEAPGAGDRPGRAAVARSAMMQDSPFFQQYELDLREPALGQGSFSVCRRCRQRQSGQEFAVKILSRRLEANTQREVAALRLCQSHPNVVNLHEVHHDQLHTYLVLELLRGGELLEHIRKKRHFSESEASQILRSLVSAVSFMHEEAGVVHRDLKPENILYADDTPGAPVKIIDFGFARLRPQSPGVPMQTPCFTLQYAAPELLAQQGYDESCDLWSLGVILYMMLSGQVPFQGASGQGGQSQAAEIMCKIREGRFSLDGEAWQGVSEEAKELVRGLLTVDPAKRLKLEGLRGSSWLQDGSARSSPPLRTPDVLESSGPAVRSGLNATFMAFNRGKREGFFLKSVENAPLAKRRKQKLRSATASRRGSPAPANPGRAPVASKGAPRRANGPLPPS
T2 sequence (Q92772 whole entry): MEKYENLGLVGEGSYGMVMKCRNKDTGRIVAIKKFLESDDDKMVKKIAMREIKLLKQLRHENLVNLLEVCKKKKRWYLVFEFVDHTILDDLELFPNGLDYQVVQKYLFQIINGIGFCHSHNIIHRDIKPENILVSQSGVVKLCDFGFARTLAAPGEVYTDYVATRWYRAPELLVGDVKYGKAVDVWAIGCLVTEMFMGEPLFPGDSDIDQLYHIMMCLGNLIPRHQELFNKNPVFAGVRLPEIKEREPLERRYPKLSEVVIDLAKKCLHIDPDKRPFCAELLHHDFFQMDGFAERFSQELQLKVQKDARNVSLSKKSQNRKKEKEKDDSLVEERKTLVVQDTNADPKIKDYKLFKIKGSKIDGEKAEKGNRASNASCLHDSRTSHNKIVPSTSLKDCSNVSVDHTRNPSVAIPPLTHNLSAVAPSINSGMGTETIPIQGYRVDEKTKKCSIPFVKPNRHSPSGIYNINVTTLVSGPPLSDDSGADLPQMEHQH
T5 sequence (Q9UK32 whole entry): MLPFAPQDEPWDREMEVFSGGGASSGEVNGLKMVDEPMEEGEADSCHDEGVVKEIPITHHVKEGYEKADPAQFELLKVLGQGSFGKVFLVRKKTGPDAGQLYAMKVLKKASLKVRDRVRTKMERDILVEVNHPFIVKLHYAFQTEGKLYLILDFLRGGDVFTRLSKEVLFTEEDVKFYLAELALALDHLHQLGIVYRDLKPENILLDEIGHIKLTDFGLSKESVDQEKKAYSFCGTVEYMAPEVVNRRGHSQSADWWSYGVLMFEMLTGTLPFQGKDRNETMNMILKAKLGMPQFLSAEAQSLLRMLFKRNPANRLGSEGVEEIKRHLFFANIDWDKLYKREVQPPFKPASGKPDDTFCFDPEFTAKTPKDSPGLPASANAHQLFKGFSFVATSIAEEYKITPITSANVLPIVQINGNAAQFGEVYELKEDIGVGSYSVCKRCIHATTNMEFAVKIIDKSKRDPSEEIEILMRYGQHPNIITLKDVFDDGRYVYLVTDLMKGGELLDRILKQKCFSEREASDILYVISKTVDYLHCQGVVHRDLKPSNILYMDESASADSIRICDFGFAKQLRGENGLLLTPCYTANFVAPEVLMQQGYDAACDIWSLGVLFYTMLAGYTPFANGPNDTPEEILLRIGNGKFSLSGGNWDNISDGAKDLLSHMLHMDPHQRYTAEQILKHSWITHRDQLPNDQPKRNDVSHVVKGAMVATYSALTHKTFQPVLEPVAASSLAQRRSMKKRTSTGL
T34 sequence (Q8IWQ3 whole entry): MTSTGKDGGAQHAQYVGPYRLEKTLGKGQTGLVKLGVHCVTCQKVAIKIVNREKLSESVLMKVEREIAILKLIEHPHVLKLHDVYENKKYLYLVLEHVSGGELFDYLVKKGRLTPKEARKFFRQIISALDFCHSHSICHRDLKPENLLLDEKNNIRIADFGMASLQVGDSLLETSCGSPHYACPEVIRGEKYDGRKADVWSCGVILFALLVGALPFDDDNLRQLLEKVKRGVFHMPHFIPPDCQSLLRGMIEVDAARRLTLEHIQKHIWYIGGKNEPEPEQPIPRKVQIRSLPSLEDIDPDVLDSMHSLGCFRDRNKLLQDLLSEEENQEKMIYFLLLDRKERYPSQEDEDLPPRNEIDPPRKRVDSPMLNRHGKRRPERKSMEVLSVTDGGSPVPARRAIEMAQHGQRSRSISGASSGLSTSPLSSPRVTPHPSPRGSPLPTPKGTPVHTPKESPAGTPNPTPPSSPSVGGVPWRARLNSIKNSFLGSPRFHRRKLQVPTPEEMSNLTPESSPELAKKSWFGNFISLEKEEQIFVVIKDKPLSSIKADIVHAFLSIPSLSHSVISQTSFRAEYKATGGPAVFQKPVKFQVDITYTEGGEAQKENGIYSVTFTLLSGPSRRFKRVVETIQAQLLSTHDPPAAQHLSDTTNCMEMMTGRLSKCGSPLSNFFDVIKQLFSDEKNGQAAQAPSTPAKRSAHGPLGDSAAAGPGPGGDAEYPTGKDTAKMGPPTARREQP
T9 sequence (Q9UIK4 whole entry): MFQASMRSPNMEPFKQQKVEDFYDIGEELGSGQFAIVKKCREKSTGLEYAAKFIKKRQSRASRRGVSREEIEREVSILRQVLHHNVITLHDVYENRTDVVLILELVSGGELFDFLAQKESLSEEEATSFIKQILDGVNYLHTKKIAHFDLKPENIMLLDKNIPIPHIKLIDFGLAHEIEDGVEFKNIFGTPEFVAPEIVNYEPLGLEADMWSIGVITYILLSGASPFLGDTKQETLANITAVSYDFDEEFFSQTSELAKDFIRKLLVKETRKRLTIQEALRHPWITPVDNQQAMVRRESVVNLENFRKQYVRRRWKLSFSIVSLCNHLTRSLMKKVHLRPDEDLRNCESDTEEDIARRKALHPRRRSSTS

Q: For `COc1cc(OC)cc(N(CCN[C@H](C)CO)c2ccc3ncc(-c4cnn(C)c4)c(=O)n3c2)c1` [RK-019, (R)-7-((3,5-dimethoxyphenyl) (2-((1-hydroxypropan-2-yl)amino)ethyl)amino)-3-(1-methyl-1H-pyrazol-4-yl)-4H-pyrido [1,2-a]pyrimidin-4-one], which activity at 1 µM (MKK3(h)) is on record?
A: 96%

Q: And the activity at 1 µM (CDKL2(h))?
A: 110%

Q: And the activity at 1 µM (Abl(h))?
A: 40%

Q: What about the activity at 1 µM (SRPK2(h)) of the same compound?
A: 134%

Q: What about the activity at 1 µM (Rsk4(h)) of the same compound?
A: 146%

Q: What about the activity at 1 µM (GRK6(h)) of the same compound?
A: 114%

Q: And the activity at 1 µM (PIP5K1g(h))?
A: 97%

Q: What about the activity at 1 µM (Met(Y1248D)(h)) of the same compound?
A: 103%

Q: What about the activity at 1 µM (DAPK2(h)) of the same compound?
A: 97%

Q: And the activity at 1 µM (Ros(h))?
A: 101%

Q: And the activity at 1 µM (BIKe(h))?
A: 93%

Q: What about the activity at 1 µM (MAK(h)) of the same compound?
A: 110%

Q: And the activity at 1 µM (MSK2(h))?
A: 101%

Q: What about the activity at 1 µM (NEK4(h)) of the same compound?
A: 109%

Q: And the activity at 1 µM (PKD3(h))?
A: 99%

Q: What about the activity at 1 µM (CDK2/cyclinE(h)) of the same compound?
A: 123%

Q: And the activity at 1 µM (CDKL3(h))?
A: 102%

Q: What about the activity at 1 µM (DYRK1A(h)) of the same compound?
A: 101%

Q: And the activity at 1 µM (LKB1(h))?
A: 94%

Q: And the activity at 1 µM (HPK1(h))?
A: 95%

Q: What about the activity at 1 µM (MEKK2(h)) of the same compound?
A: 96%

Q: What about the activity at 1 µM (SLK(h)) of the same compound?
A: 99%

Q: And the activity at 1 µM (PIP5K1a(h))?
A: 103%

Q: What about the activity at 1 µM (FAK(h)) of the same compound?
A: 105%

Q: What about the activity at 1 µM [1] of the same compound?
A: 100%

Q: And the activity at 1 µM (Txk(h))?
A: 106%

Q: What about the activity at 1 µM [2] of the same compound?
A: 101%

Q: What about the activity at 1 µM (LIMK2(h)) of the same compound?
A: 98%

Q: What about the activity at 1 µM (CK1γ3(h)) of the same compound?
A: 87%

Q: And the activity at 1 µM (IGF-1R(h))?
A: 104%

Q: And the activity at 1 µM (Src(T341M)(h))?
A: 98%

Q: And the activity at 1 µM (NEK2(h))?
A: 80%

Q: What about the activity at 1 µM (CDK12/cyclinK(h)) of the same compound?
A: 109%

Q: And the activity at 1 µM (BrSK2(h))?
A: 96%

Q: What about the activity at 1 µM (RIPK2(h)) of the same compound?
A: 46%

Q: And the activity at 1 µM (TLK2(h))?
A: 124%

Q: What about the activity at 1 µM (CK2α1(h)) of the same compound?
A: 95%

From paper PMC9532703, “A novel small molecule RK-019 inhibits FGFR2-amplification gastric cancer cell proliferation and induces apoptosis in vitro and in vivo” (Frontiers in Pharmacology, 2022)
